According to ChEMBL document CHEMBL1687845, “Carotenoid-related alteration of cell membrane fluidity impacts Staphylococcus aureus susceptibility to host defense peptides” (2011):
Converted amounts (≈) assume the structure as drawn.

Legend:
Staphylococcus aureus [1] = assay: Antibacterial activity against wild type methicillin-susceptible Staphylococcus aureus SA144 by Etest; format: functional
Staphylococcus aureus [2] = assay: Antibacterial activity against methicillin-susceptible Staphylococcus aureus SA145 harboring crtM deletion mutant by Etest; format: functional
Staphylococcus aureus [3] = assay: Antibacterial activity against methicillin-susceptible Staphylococcus aureus SA146 harboring deltacrtM-pDCerm by Etest; format: functional
Staphylococcus aureus [4] = assay: Antibacterial activity against methicillin-susceptible Staphylococcus aureus SA147 harboring deltacrtM-pDCerm::crtMN by Etest; format: functional
Staphylococcus aureus [5] = assay: Ratio of MIC for methicillin-susceptible Staphylococcus aureus SA147 harboring deltacrtM-pDCerm::crtMN to MIC for wild type methicillin-susceptible Staphylococcus aureus SA144; format: functional
Staphylococcus aureus [6] = assay: Antibacterial activity against wild type methicillin-susceptible Staphylococcus aureus SA144 assessed as bacterial survival at 1.25 ug/ml after 2 hrs; format: functional; conditions: SA144, 2 h
Staphylococcus aureus [7] = assay: Antibacterial activity against wild type methicillin-susceptible Staphylococcus aureus SA144 assessed as bacterial survival at 0.625 ug/ml after 2 hrs; format: functional; conditions: SA144, 2 h
Staphylococcus aureus [8] = assay: Antibacterial activity against methicillin-susceptible Staphylococcus aureus SA145 harboring crtM deletion mutant assessed as bacterial survival at 1.25 ug/ml after 2 hrs; format: functional; conditions: SA145, 2 h
Staphylococcus aureus [9] = assay: Antibacterial activity against methicillin-susceptible Staphylococcus aureus SA145 harboring crtM deletion mutant assessed as bacterial survival at 0.625 ug/ml after 2 hrs; format: functional; conditions: SA145, 2 h
Staphylococcus aureus [10] = assay: Antibacterial activity against methicillin-susceptible Staphylococcus aureus SA147 harboring deltacrtM-pDCerm::crtMN assessed as bacterial survival at 1.25 ug/ml after 2 hrs; format: functional; conditions: SA147, 2 h
Staphylococcus aureus [11] = assay: Antibacterial activity against methicillin-susceptible Staphylococcus aureus SA147 harboring deltacrtM-pDCerm::crtMN assessed as bacterial survival at 0.625 ug/ml after 2 hrs; format: functional; conditions: SA147, 2 h
Staphylococcus aureus [12] = assay: Antibacterial activity against wild type methicillin-susceptible Staphylococcus aureus SA144 assessed as bacterial survival at 5 ug/ml after 2 hrs; format: functional; conditions: SA144, 2 h
Staphylococcus aureus [13] = assay: Antibacterial activity against wild type methicillin-susceptible Staphylococcus aureus SA144 assessed as bacterial survival at 2.5 ug/ml after 2 hrs; format: functional; conditions: SA144, 2 h
Staphylococcus aureus [14] = assay: Antibacterial activity against methicillin-susceptible Staphylococcus aureus SA145 harboring crtM deletion mutant assessed as bacterial survival at 5 ug/ml after 2 hrs; format: functional; conditions: SA145, 2 h
Staphylococcus aureus [15] = assay: Antibacterial activity against methicillin-susceptible Staphylococcus aureus SA145 harboring crtM deletion mutant assessed as bacterial survival at 2.5 ug/ml after 2 hrs; format: functional; conditions: SA145, 2 h
Staphylococcus aureus [16] = assay: Antibacterial activity against methicillin-susceptible Staphylococcus aureus SA147 harboring deltacrtM-pDCerm::crtMN assessed as bacterial survival at 5 ug/ml after 2 hrs; format: functional; conditions: SA147, 2 h
Staphylococcus aureus [17] = assay: Antibacterial activity against methicillin-susceptible Staphylococcus aureus SA147 harboring deltacrtM-pDCerm::crtMN assessed as bacterial survival at 2.5 ug/ml after 2 hrs; format: functional; conditions: SA147, 2 h
Staphylococcus aureus [18] = assay: Antibacterial activity against wild type methicillin-susceptible Staphylococcus aureus SA144 assessed as bacterial survival at 80 ug/ml after 2 hrs; format: functional, organism-based
Staphylococcus aureus [19] = assay: Antibacterial activity against wild type methicillin-susceptible Staphylococcus aureus SA144 assessed as bacterial survival at 40 ug/ml after 2 hrs; format: functional, organism-based
Staphylococcus aureus [20] = assay: Antibacterial activity against methicillin-susceptible Staphylococcus aureus SA145 harboring crtM deletion mutant assessed as bacterial survival at 80 ug/ml after 2 hrs; format: functional, organism-based
Staphylococcus aureus [21] = assay: Antibacterial activity against methicillin-susceptible Staphylococcus aureus SA145 harboring crtM deletion mutant assessed as bacterial survival at 40 ug/ml after 2 hrs; format: functional, organism-based
Staphylococcus aureus [22] = assay: Antibacterial activity against methicillin-susceptible Staphylococcus aureus SA147 harboring deltacrtM-pDCerm::crtMN assessed as bacterial survival at 80 ug/ml after 2 hrs; format: functional, organism-based
Staphylococcus aureus [23] = assay: Antibacterial activity against methicillin-susceptible Staphylococcus aureus SA147 harboring deltacrtM-pDCerm::crtMN assessed as bacterial survival at 40 ug/ml after 2 hrs; format: functional, organism-based

## CCCCCCCCCC(=O)N[C@@H](Cc1c[nH]c2ccccc12)C(=O)N[C@H](CC(N)=O)C(=O)N[C@@H](CC(=O)O)C(=O)N[C@@H]1C(=O)NCC(=O)N[C@@H](CCCN)C(=O)N[C@@H](CC(=O)O)C(=O)N[C@H](C)C(=O)N[C@@H](CC(=O)O)C(=O)NCC(=O)N[C@H](CO)C(=O)N[C@@H]([C@H](C)CC(=O)O)C(=O)N[C@@H](CC(=O)c2ccccc2N)C(=O)O[C@@H]1C
Staphylococcus aureus [1]
  MIC: 0.75 µg/mL (≈ 0.463 µM)
Staphylococcus aureus [2]
  MIC: 0.75 µg/mL (≈ 0.463 µM)
Staphylococcus aureus [3]
  MIC: 0.75 µg/mL (≈ 0.463 µM)
Staphylococcus aureus [4]
  MIC: 1.5 µg/mL (≈ 0.926 µM)
Staphylococcus aureus [5]
  Ratio: 2
Staphylococcus aureus [6]
  survival at 1.25 µg/mL: 12%
Staphylococcus aureus [7]
  survival at 0.625 µg/mL: 18%
Staphylococcus aureus [8]
  survival at 1.25 µg/mL: 21%
Staphylococcus aureus [9]
  survival at 0.625 µg/mL: 24%
Staphylococcus aureus [10]
  survival at 1.25 µg/mL: 49%
Staphylococcus aureus [11]
  survival at 0.625 µg/mL: 55%

## H-ALYKKFKKKLLKSLKRLG-OH
Staphylococcus aureus [12]
  survival at 5 µg/mL: 11%
Staphylococcus aureus [13]
  survival at 2.5 µg/mL: 23%
Staphylococcus aureus [14]
  survival at 5 µg/mL: 13%
Staphylococcus aureus [15]
  survival at 2.5 µg/mL: 18%
Staphylococcus aureus [16]
  survival at 5 µg/mL: 23%
Staphylococcus aureus [17]
  survival at 2.5 µg/mL: 55%

## POLYMYXIN B
Staphylococcus aureus [18]
  Survival: 13%
Staphylococcus aureus [19]
  Survival: 29%
Staphylococcus aureus [20]
  Survival: 14%
Staphylococcus aureus [21]
  Survival: 23%
Staphylococcus aureus [22]
  Survival: 26%
Staphylococcus aureus [23]
  Survival: 25%
